Laboratory results reported in patent US20160185797A1, “ALKYNYL ALCOHOLS AND METHODS OF USE” (Genentech, Inc., priority 2013, published 2016).
pIC50: −log10 of the molar value.

Tests used:
[1] = biological target: T1, nuclear factor-kappa B (NF-kB)-inducing kinase (NIK) (Homo sapiens, UniProt Q99558); assay: NIK enzyme inhibition assay (Transcreener ADP fluorescence polarization, NIK ADP-FP); assay type: biochemical
T1 construct: made in house; host or cells: baculovirus-infected insect cells
Method: NIK Enzyme Inhibition Assay:
The ability of the nuclear factor-kappa B (NF-kB)-inducing kinase (NIK) to catalyze the hydrolysis of adenosine-5′-triphosphate (ATP) was monitored using the Transcreener ADP (adenosine-5′-diphosphate) assay (BellBrook Labs). […] Reactions were quenched by the addition of 20 mM 2,2′,2″,2′″-(ethane-1,2-diyldinitrilo)tetraacetic acid and 0.01% Brij 35. The tracer bound to the antibody was displaced by the ADP generated during the NIK reaction, which causes a decrease in fluorescence polarization that was measured by laser excitation at 633 nm with a Fluorescence Correlation Spectroscopy Plus reader (Evotec AG). Equilibrium dissociation constant (Ki) values for NIK inhibitors are calculated from plots of activity vs. inhibitor concentration using Morrison's quadratic equation that accounts for the potential of tight binding, and by also applying the conversion factor that accounted for competitive inhibition and the concentration of substrate used in the assay relative to its Michaelis constant (Km).

[2] = test system: REL-A (p65) nuclear translocation in HeLa cells; assay: REL-A (p65) nuclear translocation assay in HeLa cells, TNF-α stimulated (classical NF-kB signaling), high content imaging; assay type: cell-based; conditions: Homo sapiens, HeLa, compound 4.5 h, then 10 ng/mL TNF-α for 30 minutes, read-out: REL-A HeLa Transloc Assay (IC50)
Method: (§1) Several assays were developed to profile the cellular activities of NIK inhibitors.
(§2) (2) A second set of cell assay are used to define the selectivity of NIK inhibitors toward inhibition of classical vs. non-classical NF-kB signaling and rely on quantification of the nuclear translocation of p52 (NF-kB2) and REL-A (p65) using high content cellular imaging. For the p52 (non-classical NF-kB signaling) nuclear translocation assay, HeLa cells are treated with different concentrations of compounds (0.2% DMSO final) in medium containing 10% fetal bovine serum and then stimulated with 100 ng/mL of an anti-lymphotoxin beta receptor antibody (R&D Systems) for 5 hours. In the REL-A nuclear translocation assay, HeLa cells are incubated with compounds (0.2% DMSO final) for 4.5 hours in medium containing 10% fetal bovine serum before stimulating them with 10 ng/mL tumor necrosis factor (TNF)-α (R&D Systems) for 30 minutes. Cells are fixed with 4% paraformaldehyde, permeabilized by adding 0.1% Triton X-100 in phosphate buffered saline, and then are incubated with either 2 ug/mL anti-p52 antibody (Millipore) or 400 ng/mL anti-REL-A (p65) antibody (Santa Cruz Biotechnology). Finally, the cells are incubated with an Alexa488-labeled secondary antibody (Invitrogen) and DRAQ5 DNA stain (Biostatus). Imaging is carried out using an Opera reader (Perkin Elmer) and data are analyzed with the aid of Acapella software (Perkin Elmer). The p52 or REL-Atranslocation into the nucleus is quantified by the ratio of the nuclear to cytoplasmic signal intensity. […] The compounds in listed in Table 1 have the corresponding inhibitory value (IC50 in micromolar) for NIK p52 Translocation Assay as set forth in Table 2.
(§3) The compounds in listed in Table 1 have the corresponding inhibitory values (IC50 in micromolar) for the Translocation Assays as set forth in Table 2.

[3] = test system: p52 (NF-kB2) nuclear translocation in HeLa cells; assay: p52 (NF-kB2) nuclear translocation assay in HeLa cells, anti-lymphotoxin beta receptor antibody stimulated (non-classical NF-kB signaling), high content imaging; assay type: cell-based; conditions: Homo sapiens, 100 ng/mL anti-lymphotoxin beta receptor antibody for 5 hours, read-out: p52 HeLa Transloc Assay (IC50)
Method: as §1, §2, §3

T1 sequence (Q99558 whole entry): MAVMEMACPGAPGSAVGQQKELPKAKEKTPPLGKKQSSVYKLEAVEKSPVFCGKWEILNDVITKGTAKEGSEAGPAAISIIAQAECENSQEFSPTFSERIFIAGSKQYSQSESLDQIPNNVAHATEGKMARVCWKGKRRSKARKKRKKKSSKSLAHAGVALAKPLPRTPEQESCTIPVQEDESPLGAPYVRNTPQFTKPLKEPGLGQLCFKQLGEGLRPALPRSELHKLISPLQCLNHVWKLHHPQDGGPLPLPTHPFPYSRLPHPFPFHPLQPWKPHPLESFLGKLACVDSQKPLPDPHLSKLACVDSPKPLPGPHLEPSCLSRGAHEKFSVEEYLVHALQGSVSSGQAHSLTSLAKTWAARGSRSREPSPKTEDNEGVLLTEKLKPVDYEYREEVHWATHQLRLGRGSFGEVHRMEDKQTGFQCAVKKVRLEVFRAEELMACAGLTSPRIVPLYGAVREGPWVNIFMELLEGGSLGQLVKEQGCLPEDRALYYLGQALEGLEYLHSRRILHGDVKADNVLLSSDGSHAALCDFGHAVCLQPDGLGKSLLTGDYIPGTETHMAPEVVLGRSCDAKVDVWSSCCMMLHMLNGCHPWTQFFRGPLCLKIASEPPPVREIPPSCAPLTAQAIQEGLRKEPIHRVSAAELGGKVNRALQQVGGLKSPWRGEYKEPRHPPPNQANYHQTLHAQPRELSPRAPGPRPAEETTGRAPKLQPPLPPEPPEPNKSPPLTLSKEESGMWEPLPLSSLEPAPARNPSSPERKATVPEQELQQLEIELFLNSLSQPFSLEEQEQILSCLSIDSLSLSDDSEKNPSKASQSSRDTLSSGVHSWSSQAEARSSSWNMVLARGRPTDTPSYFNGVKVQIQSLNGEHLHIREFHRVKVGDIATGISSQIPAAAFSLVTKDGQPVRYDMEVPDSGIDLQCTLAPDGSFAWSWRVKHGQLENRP

SMILES | Ki [1] | pIC50 [2] | pIC50 [3]
CN1CC[C@@](O)(C#Cc2cccc(-c3nc(C(N)=O)cc(N4CC(F)(F)C4)n3)c2)C1=O [Example 8, 6-(3,3-difluoroazetidin-1-yl)-2-[3-[2-[(3R)-3-hydroxy-1-methyl-2-oxo-pyrrolidin-3-yl]ethynyl]phenyl]pyrimidine-4-carboxamide] | 2.35 nM | < 4.70 | 6.68
CN1CC[C@@](O)(C#Cc2cccc(-c3nc(C(N)=O)nc4c3ccn4C)c2)C1=O [Example 50, 4-[3-[2-[(3R)-3-hydroxy-1-methyl-2-oxo-pyrrolidin-3-yl]ethynyl]phenyl]-7-methyl-pyrrolo[2,3-d]pyrimidine-2-carboxamide] | 1.08 nM | ≤ 4.70 | 6.46
COCCNc1cc(F)c(-c2cccc(C#C[C@]3(O)CCN(C)C3=O)c2)nc1C(N)=O [Example 80, 5-fluoro-6-[3-[2-[(3R)-3-hydroxy-1-methyl-2-oxo-pyrrolidin-3-yl]ethynyl]phenyl]-3-(2-methoxyethylamino) pyridine-2-carboxamide] | 0.05 nM | ≤ 4.70 | 8.33
CN1CC[C@@](O)(C#Cc2cccc(-c3nc(C(N)=O)cc4c3cnn4C)c2)C1=O [Example 74, 4-[3-[2-[(3R)-3-hydroxy-1-methyl-2-oxo-pyrrolidin-3-yl]ethynyl]phenyl]-1-methyl-pyrazolo[4,3-c]pyridine-6-carboxamide] | 0.53 nM | ≤ 4.70 | 7.22
CN1CC[C@@](O)(C#Cc2cccc(-c3nc(C(N)=O)cc(N4CCCC4)n3)c2)C1=O [Example 5, 2-[3-[2-[(3R)-3-hydroxy-1-methyl-2-oxo-pyrrolidin-3-yl]ethynyl]phenyl]-6-pyrrolidin-1-yl-pyrimidine-4-carboxamide] | 0.8 nM | < 4.70 | 6.91
COCCNc1cnc(-c2cccc(C#C[C@]3(O)CCN(C)C3=O)c2)nc1C(N)=O [Example 89, 2-[3-[2-[(3R)-3-hydroxy-1-methyl-2-oxo-pyrrolidin-3-yl]ethynyl]phenyl]-5-(2-methoxyethylamino) pyrimidine-4-carboxamide] | 0.05 nM | 6.00 | 7.49
CN1CC[C@@](O)(C#Cc2cccc(-c3nc(C(N)=O)cc(-c4cncn4C)n3)c2)C1=O [Example 66, 2-[3-[2-[(3R)-3-hydroxy-1-methyl-2-oxo-pyrrolidin-3-yl]ethynyl]phenyl]-6-(3-methylimidazol-4-yl) pyrimidine-4-carboxamide] | 0.16 nM | ≤ 4.70 | 6.86
CN1CC[C@@](O)(C#Cc2cccc(-c3nc(C(N)=O)cc(-c4ccn[nH]4)n3)c2)C1=O [Example 69, 2-[3-[2-[(3R)-3-hydroxy-1-methyl-2-oxo-pyrrolidin-3-yl]ethynyl]phenyl]-6-(1H-pyrazol-5-yl)pyrimidine-4-carboxamide] | 0.6 nM | ≤ 4.70 | 6.69
Cc1cc(C(N)=O)nc(-c2cccc(C#C[C@]3(O)CCN(C)C3=O)c2)n1 [Example 13, 2-[3-[2-[(3R)-3-hydroxy-1-methyl-2-oxo-pyrrolidin-3-yl]ethynyl]phenyl]-6-methyl-pyrimidine-4-carboxamide] | 0.48 nM | < 4.70 | 6.42
COCC1CCCN1c1cc(C(N)=O)nc(-c2cccc(C#C[C@]3(O)CCN(C)C3=O)c2)n1 (stereo partly drawn) [Example 18, 2-[3-[2-[(3R)-3-hydroxy-1-methyl-2-oxo-pyrrolidin-3-yl]ethynyl]phenyl]-6-[2-(methoxymethyl)pyrrolidin-1-yl]pyrimidine-4-carboxamide] | 2.19 nM | < 4.70 | 7.41
Cc1ccc(-c2cccc(C#C[C@]3(O)CCN(C)C3=O)c2)nc1C(N)=O [Example 133, 6-[3-[2-[(3R)-3-hydroxy-1-methyl-2-oxo-pyrrolidin-3-yl]ethynyl]phenyl]-3-methyl-pyridine-2-carboxamide] | 0.18 nM | ≤ 5.70 | 6.80
CN1CC[C@@](O)(C#Cc2cccc(-c3cc4cc[nH]c4c(C(N)=O)n3)c2)C1=O [Example 49, 5-[3-[2-[(3R)-3-hydroxy-1-methyl-2-oxo-pyrrolidin-3-yl]ethynyl]phenyl]-1H-pyrrolo [2,3-c]pyridine-7-carboxamide] | 0.05 nM | ≤ 5.70 | 8.09
COC[C@@H](C)Nc1ccc(-c2cc(C#C[C@]3(O)CCN(C)C3=O)ccc2F)nc1C(N)=O [Example 148, 6-[2-fluoro-5-[2-[(3R)-3-hydroxy-1-methyl-2-oxo-pyrrolidin-3-yl]ethynyl]phenyl]-3-[[(1R)-2-methoxy-1-methyl-ethyl]amino] pyridine-2-carboxamide] | 0.19 nM | ≤ 5.70 | 7.28
COCCNc1cnc(-c2cc(C#C[C@]3(O)CCN(C)C3=O)c(F)cc2F)nc1C(N)=O [Example 153, 2-[2,4-difluoro-5[2-[(3R)-3-hydroxy-1-methyl-2-oxo-pyrrolidin-3-yl]ethynyl]phenyl]-5-(2-methoxyethylamino) pyrimidine-4-carboxamide] | 0.1 nM | < 5.70 | 7.35
CN1CC[C@@](O)(C#Cc2cccc(-c3nc(C(N)=O)c4cnn(C)c4n3)c2)C1=O [Example 42, 6-(3-[2-[(3R)-3-hydroxy-1-methyl-2-oxopyrrolidin-3-yl]ethynyl]phenyl)-1-methyl-1H-pyrazolo[3,4-d] pyrimidine-4-carboxamide] | 0.1 nM | < 4.70 | 7.96
CN1CC[C@@](O)(C#Cc2cccc(-c3nc4c(c(C(N)=O)n3)CCC4)c2)C1=O [Example 38, 2-[3-[2-[(3R)-3-hydroxy-1-methyl-2-oxo-pyrrolidin-3-yl]ethynyl]phenyl]-6,7-dihydro-5H-cyclopenta [d]pyrimidine-4-carboxamide] | 0.19 nM | < 4.70 | 7.31
COCCNc1ccc(-c2cc(C#C[C@]3(O)CCN(C)C3=O)ccc2F)nc1C(N)=O [Example 86, 6-[2-fluoro-5-[2-[(3R)-3-hydroxy-1-methyl-2-oxo-pyrrolidin-3-yl]ethynyl]phenyl]-3-(2-methoxyethylamino) pyridine-2-carboxamide] | 0.1 nM | ≤ 4.70 | 8.20
CN1CC[C@@](O)(C#Cc2cccc(-c3nc(C(N)=O)cc(N4CC5(COC5)C4)n3)c2)C1=O [Example 11, 2-[3-[2-[(3R)-3-hydroxy-1-methyl-2-oxo-pyrrolidin-3-yl]ethynyl]phenyl]-6-(6-oxa-2-azaspiro[3.3]heptan-2-yl) pyrimidine-4-carboxamide] | 4.65 nM | < 4.70 | 5.60
CN1CC[C@@](O)(C#Cc2cccc(-c3ncc(NCC4COC4)c(C(N)=O)n3)c2)C1=O [Example 100, 2-[3-[2-[(3R)-3-hydroxy-1-methyl-2-oxo-pyrrolidin-3-yl]ethynyl]phenyl]-5-(oxetan-3-ylmethylamino) pyrimidine-4-carboxamide] | 0.1 nM | ≤ 4.70 | 7.94
CN1CC[C@@](O)(C#Cc2cccc(-c3nc(C(N)=O)cc(-c4cc(F)ccc4F)n3)c2)C1=O [Example 98, 6-(2,5-difluorophenyl)-2-[3-[2-[(3R)-3-hydroxy-1-methyl-2-oxo-pyrrolidin-3-yl]ethynyl]phenyl]pyrimidine-4-carboxamide] | 0.23 nM | ≤ 4.70 | 7.09
CN1CC[C@@](O)(C#Cc2cc(-c3cccc(C(N)=O)n3)c3ncsc3c2)C1=O [Example 160] | 0.5 nM | < 5.70 | 6.38
COc1ccc2nc(-c3cccc(C#C[C@]4(O)CCN(C)C4=O)c3)nc(C(N)=O)c2c1 [Example 93, 2-[3-[2-[(3R)-3-hydroxy-1-methyl-2-oxo-pyrrolidin-3-yl]ethynyl]phenyl]-6-methoxy-quinazoline-4-carboxamide] | 0.15 nM | 5.20 | 7.68
CN1CC[C@@](O)(C#Cc2cccc(-c3ncc(NCC(F)(F)F)c(C(N)=O)n3)c2)C1=O [Example 146, 2-[3-[2-[(3R)-3-hydroxy-1-methyl-2-oxo-pyrrolidin-3-yl]ethynyl]phenyl]-5-(2,2,2-trifluoroethylamino) pyrimidine-4-carboxamide] | 0.37 nM | ≤ 4.70 | 7.94
Cc1ncc(-c2cccc(C#C[C@]3(O)CCN(C)C3=O)c2)nc1C(N)=O [Example 165, 6-[3-[2-[(3R)-3-hydroxy-1-methyl-2-oxo-pyrrolidin-3-yl]ethynyl]phenyl]-3-methyl-pyrazine-2-carboxamide] | 0.08 nM | < 5.70 | 6.74
